From article PMC12473165, “Theranostic Potential of a New ^64Cu-Labeled NOTA-R954 Peptide Conjugate for Kinin B1R Expressing Prostate Cancer” (Pharmaceutics, 2025)
Square brackets hold non-standard residues; d marks the D form. Peptide text beside a SMILES is read from it. Oic = O=C(O)[C@@H]1C[C@@H]2CCCC[C@@H]2N1; d2Nal = N[C@H](Cc1ccc2ccccc2c1)C(=O)O; αMeF = C[C@](N)(Cc1ccccc1)C(=O)O; Orn = NCCC[C@H](N)C(=O)O

Key:
[1] = target: T1, native hB1R (Homo sapiens, UniProt P46663); assay: Human umbilical vein (HUV) contractility bioassay, B1R; conditions: isolated human umbilical vein contraction, DBK agonist at submaximal concentration; means of 2 independent experiments
T1 construct: from tissue; host or cells: isolated human umbilical vein (HUV)
T1 sequence (P46663 1-353): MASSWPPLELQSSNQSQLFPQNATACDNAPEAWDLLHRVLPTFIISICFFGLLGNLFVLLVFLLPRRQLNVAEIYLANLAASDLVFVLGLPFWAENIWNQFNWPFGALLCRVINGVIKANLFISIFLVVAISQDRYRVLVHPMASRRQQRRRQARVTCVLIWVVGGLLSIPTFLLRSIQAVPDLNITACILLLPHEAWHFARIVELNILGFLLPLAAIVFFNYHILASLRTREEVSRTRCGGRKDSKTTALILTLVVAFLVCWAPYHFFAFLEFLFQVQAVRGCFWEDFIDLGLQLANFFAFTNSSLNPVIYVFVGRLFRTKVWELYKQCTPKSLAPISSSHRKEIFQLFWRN
Procedure: The potency (apparent affinity) of non-radioactive NOTA-βAla-R954 peptide conjugates at native inducible B1R was assessed using human tissue bioassays with isolated umbilical veins, as previously described. Collection of umbilical cords for these bioassays was approved by the CHUS Human Research Ethics Committee (protocol #97-14; 21 March 1997), and maternal consent was obtained in all cases. Antagonist affinity was expressed in terms of IC50, which represents the molar concentration of an antagonist that reduces the response to a submaximal concentration of the DBK agonist by 50%.

[2] = target: T2, hB2R (Homo sapiens, UniProt P30411); assay: Human umbilical vein (HUV) contractility bioassay, B2R; design: native (HUV) human kinin B1R and B2R; from tissue; host or cells: isolated human umbilical vein (HUV); conditions: isolated human umbilical vein contraction; means of 2 independent experiments
T2 sequence (P30411 1-391): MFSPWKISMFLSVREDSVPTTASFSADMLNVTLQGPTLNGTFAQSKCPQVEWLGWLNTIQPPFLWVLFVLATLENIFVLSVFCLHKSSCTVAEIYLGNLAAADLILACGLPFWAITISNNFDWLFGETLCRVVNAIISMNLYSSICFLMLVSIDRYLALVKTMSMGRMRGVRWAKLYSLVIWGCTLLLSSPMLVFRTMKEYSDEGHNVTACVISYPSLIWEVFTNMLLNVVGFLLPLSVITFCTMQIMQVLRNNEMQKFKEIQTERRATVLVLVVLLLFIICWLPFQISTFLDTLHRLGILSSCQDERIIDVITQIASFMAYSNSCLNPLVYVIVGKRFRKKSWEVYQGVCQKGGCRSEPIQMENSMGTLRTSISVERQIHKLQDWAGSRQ

[3] = target: T2, hB2R; assay: Radioligand competition binding on HEK293 cells stably expressing hB2R; conditions: competition with 1 nM [3H]BK, 1-2 h, serum-free DMEM, means of 2 independent experiments in triplicates, read-out: B2R HEK293 IC50
Procedure: Radiolabeled ligand competition binding assays were performed on HEK293 cells stably expressing hB1R or hB2R, as previously described. Cells were cultured in 24-well plates and incubated with 4 nM [^3H]Lys[Leu^8]desArg^9BK (for B1R studies) (ART1583; 90–120 Ci/mmol; American Radiolabeled Chemicals) or 1 nM [^3H]BK (for B2R studies) (NET706; 109 Ci/mmol; Perkin-Elmer, Woodbridge, ON, Canada) in serum-free DMEM for 1–2 h in the absence or presence of increasing concentrations of competitors (10^−11–10^−5M). Radioactivity in the samples was measured using a β-scintillation counter (Tri-Carb 2800; Perkin-Elmer). Binding affinities were expressed as IC50 values, calculated using GraphPad Prism version 8.2.1 software (GraphPad Software, San Diego, CA, USA).

[4] = target: T3, hB1R (Homo sapiens, UniProt P46663); assay: Radioligand competition binding on HEK293 cells stably expressing hB1R; design: expressed in transfected cells; host or cells: QBI-HEK293A (lentiviral transduction, puromycin selection); conditions: HEK293 cells stably expressing hB1R; competition with 4 nM [3H]Lys[Leu8]desArg9BK, 1-2 h, serum-free DMEM; means of 2 independent experiments in triplicates; read-out: B1R HEK293 IC50
T3 sequence (P46663 1-353): T1 sequence (P46663 1-353)

[5] = target: T3, hB1R; assay: NFAT-eGFP reporter assay in CHO-hB1R-NFAT-eGFP cells; type: cell-based; design: expressed in transfected cells; host or cells: CHO (hB1R-expressing line, then transduced with NFAT-eGFP reporter)
Description: The pLenti-6V5-NFAT-eGFP vector was generated from the pSIRV-NFAT-eGFP vector (a gift from Peter Steinberger, Addgene plasmid #118031). Briefly, NFAT-eGFP gene was PCR amplified using the following primers: 5′-[…]-3′ and 5′-[…]-3′). The amplified gene was then ligated into the ClaI and AgeI restriction sites of the pLenti-6V5 vector. Lentiviruses were produced using the pLenti-6V5-NFAT-eGFP vector in HEK293T cells and used to transduce a hB1R-expressing CHO cell line, followed by selection with 10 µg/mL blasticidin. […] Clones were grown in 4000 nanowells/well in 24-well plates and re-plated into 96-well plates after initial expansion via the ALS CellCelector™ (Sartorius Corporation, Bohemia, NY, USA). After clonal expansion, individual cell lines were evaluated based on their ratio of stimulated fluorescence to basal expression to determine maximum sensitivity.
Fluorescence assays performed on CHO-hB1R-NFAT-eGFP cells. Target cells were plated at 10,000 cells/well in a 96-well microplate (opaque black wells with clear flat bottom, Thermo Scientific, Rockford, IL, USA) using RPMI 1640 medium with 10% fetal bovine serum (FBS). After 24 h, the medium was replaced by RPMI without FBS and phenol red. […] Fluorescence was measured using a TECAN M1000 (Tecan Group Ltd., Männedorf, Switzerland) multimode microplate reader with excitation at 488 nm and emission at 507 nm. Each data point represents a ratio of two values, divided by the average fluorescence of six control wells. […] Antagonist affinity (Kb) was estimated from functional inhibition curves using the Gaddum (Schild) equation assuming competitive antagonism at human B1R: Kb = [B]/(dose-ratio–1), where [B] is the antagonist concentration, and the dose ratio is EC50 + Compound/EC50.

SMILES: CC[C@H](C)[C@H](NC(=O)[C@@H](Cc1ccc2ccccc2c1)NC(=O)[C@H](CO)NC(=O)[C@](C)(Cc1ccccc1)NC(=O)CNC(=O)[C@@H]1CCCN1C(=O)[C@@H]1C[C@@H]2CCCC[C@@H]2N1C(=O)[C@H](CCCNC(=N)N)NC(=O)[C@H](CCCN)NC(C)=O)C(=O)O [R954, AcOrn[Oic^2,^(αMe)Phe5,DβNal^7,Ile^8]desArg^9-bradykinin] (Ac-[Orn]R[Oic]PG[αMeF]S[d2Nal]I-OH)
- IC50 [1]: 3 nM
- IC50 [2]: > 10000 nM
- IC50 [3]: > 10000 nM
- IC50 [4]: 2 nM
- IC50 ([5]; hB1R-stably expressing CHO-NFAT cells, antagonist potency, means of two independent experiments, read-out: CHO-NFAT IC50 (Table S1)): 1.4 nM
- Kb ([5]; read-out: B1R-NFAT CHO Kb): 1.4 nM
